How the values were obtained:
Experiment in all cases: relative viability (nuclei count vs DMSO), 5 days (fraction); higher = more cells survive
[1] = compound: Nc1ccn([C@@H]2O[C@H](CO)[C@@H](O)C2(F)F)c(=O)n1 [Gemcitabine] + CC(C)C[C@H](NC(=O)[C@H](Cc1ccccc1)NC(=O)c1cnccn1)B(O)O [Bortezomib] (partner 0.002 µM)
Summary of the method: (§1)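 Lung cancer cell lines were pin-tool dosed in 1536-well plates on the day after seeding, with either a lone drug or a fixed anchor-drug dose plus five library-drug doses (not always all listed) in √10 steps. Nuclei were counted on 4× images after 5 days. Relative viability is the ratio of treated-well to vehicle-well nuclei counts, with each value a median of duplicate plates.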

[2] = compound: Nc1ccn([C@@H]2O[C@H](CO)[C@@H](O)C2(F)F)c(=O)n1 [Gemcitabine] + CS(=O)(=O)N1CCN(Cc2cc3nc(-c4cccc5[nH]ncc45)nc(N4CCOCC4)c3s2)CC1 [Pictilisib] (partner 1 µM)
Summary of the method: as §1

[3] = compound: Nc1ccn([C@@H]2O[C@H](CO)[C@@H](O)C2(F)F)c(=O)n1 [Gemcitabine] + O=C(c1cc(Cc2n[nH]c(=O)c3ccccc23)ccc1F)N1CCN(C(=O)C2CC2)CC1 [Olaparib] (partner 8 µM)
Summary of the method: as §1

[4] = compound: Nc1ccn([C@@H]2O[C@H](CO)[C@@H](O)C2(F)F)c(=O)n1 [Gemcitabine] + CC(=O)Nc1cccc(-n2c(=O)n(C3CC3)c(=O)c3c(Nc4ccc(I)cc4F)n(C)c(=O)c(C)c32)c1 [Trametinib] (partner 0.02 µM)
Summary of the method: as §1

Cell Line | relative viability ([1]; first compound 0.001 µM) | relative viability ([1]; first compound 0.003162 µM) | relative viability ([1]; first compound 0.01 µM) | relative viability ([1]; first compound 0.03162 µM) | relative viability ([1]; first compound 0.1 µM) | relative viability ([2]; first compound 0.001 µM) | relative viability ([2]; first compound 0.003162 µM) | relative viability ([2]; first compound 0.01 µM) | relative viability ([2]; first compound 0.03162 µM) | relative viability ([2]; first compound 0.1 µM) | relative viability ([3]; first compound 0.001 µM) | relative viability ([3]; first compound 0.003162 µM) | relative viability ([3]; first compound 0.01 µM) | relative viability ([3]; first compound 0.03162 µM) | relative viability ([3]; first compound 0.1 µM) | relative viability ([4]; first compound 0.001 µM) | relative viability ([4]; first compound 0.003162 µM) | relative viability ([4]; first compound 0.01 µM) | relative viability ([4]; first compound 0.03162 µM) | relative viability ([4]; first compound 0.1 µM)
201T | 1.03 | 1.09 | 1.12 | 0.952 | 0.401 | 0.692 | 0.71 | 0.686 | 0.496 | 0.321 | 0.884 | 0.844 | 0.826 | 0.302 | 0.262 | 0.753 | 0.714 | 0.736 | 0.691 | 0.324
A549 |  |  |  |  |  | 0.74 | 0.367 | 0.0384 | 0.0238 | 0.0155 | 0.296 | 0.279 | 0.0098 | 0.0228 | 0.014 |  |  |  |  | 
A-427 | 0.99 | 0.996 | 0.68 | 0.225 | 0.139 | 0.748 | 0.673 | 0.438 | 0.155 | 0.0739 | 0.756 | 0.745 | 0.481 | 0.259 | 0.199 | 0.704 | 0.799 | 0.521 | 0.356 | 0.223
ABC-1 | 0.344 | 0.313 | 0.372 | 0.233 | 0.239 | 0.907 | 0.832 | 0.599 | 0.38 | 0.278 |  | 0.687 | 0.54 | 0.427 | 0.398 |  |  |  |  | 
BEN | 0.79 | 0.669 | 0.198 | 0.118 | 0.113 | 0.547 | 0.477 | 0.258 | 0.128 | 0.119 | 0.946 | 0.421 | 0.234 | 0.193 | 0.145 | 1.02 | 0.615 | 0.311 | 0.245 | 0.226
CAL-12T | 1.01 | 0.822 | 0.521 | 0.267 | 0.254 | 0.289 | 0.393 | 0.359 | 0.267 | 0.242 | 0.714 | 0.641 | 0.551 | 0.228 | 0.201 | 0.234 | 0.356 | 0.323 | 0.223 | 0.193
COR-L23 | 1.04 | 0.949 | 0.66 | 0.114 | 0.101 | 0.686 | 0.942 | 0.39 | 0.148 | 0.0795 | 0.35 | 0.31 | 0.141 | 0.0915 | 0.0858 | 0.584 | 0.656 | 0.248 | 0.116 | 0.099
COR-L 105 | 0.867 | 0.851 | 0.479 | 0.23 | 0.201 | 0.43 | 0.377 | 0.364 | 0.27 | 0.269 | 0.692 | 0.774 | 0.625 | 0.357 | 0.282 | 0.418 | 0.463 | 0.364 | 0.367 | 0.345
Calu-6 | 1.04 | 0.57 | 0.26 | 0.167 | 0.159 | 0.994 | 0.705 | 0.223 | 0.162 | 0.108 | 0.529 | 0.465 | 0.24 | 0.119 | 0.0919 |  |  |  |  | 

Source: the supplement of paper PMC10307832
